# “Also recorded” adds a separate entry of the source.
# What was measured:
# Aβ40 [1] = target: T1, Aβ40 (Homo sapiens, UniProt P05067); experiment: Thioflavin-T fibrillization assay; assay type: biochemical
# T1 construct: host or cells: chemical solid-phase peptide synthesis (no expression host)
# Source text: Synthetic Aβ 1-40 peptide (sequence: […]) was synthesized at the W.M. Keck Foundation Facility (Yale University, New Haven, Conn.) by solid-phase technique on a p-methyl-benzhydrylamine resin, using a Biosearch SAM 2 synthesizer and purified by high performance liquid chromatography (HPLC) with the use of a reverse-phase support medium (Delta-Bondapak) on a 0.78×30 cm column with a 0-66% linear gradient of acetonitrile in 0.1% (v/v) trifluroacetic acid, as previously described. The peptide content of the eluate was monitored by measurement of its absorption at 214 nm. To verify the sequence and purity of the peptide, linear, time-of-flight mass spectrometry was performed at the Skirball Institute at New York University. For aggregation studies the peptide was diluted in 1,1,1,3,3,3-hexafluoro-2-propanol (HFIP; Sigma St. Loius, Mo.) at a concentration of 10 mM/mL, aliquoted and lyophilized. HFIP treatment renders peptides monomeric with minimal β-sheet content. Lyophilized peptides were stored at −80° C. and resuspended immediately prior to each experiment in the appropriate diluent.
# The effect of compounds of the present invention on aggregation of Aβ 1-40 peptide was tested using a Thioflavin-T assay according to previously published methods. Aggregation of Aβ 1-40 incubated alone was measured for comparison. Aβ 1-40 was HFIP treated (as described above) and reconstituted in 100 mM Tris buffer (pH 7.4) to obtain a 100 μmol/L concentration. Stock of investigational compounds (50 mmol/L stock diluted in DMSO) was added to Aβ 1-40 to achieve of a concentration 10 or 100 μmol/L of investigational compound in 100 μmol/L of Aβ 1-40. All incubations were performed over a period of 7 days at 37° C. and the incubation mixture was slowly mixed for 6 hours every 24 h. At the conclusion of the experiment samples containing 15 μg of Aβ 1-40 with and without investigational compounds were added to 1 mL of 50 mM glycine, pH 9.2 and 2 μM of Thioflavin-T (Sigma Chemical, Co.; St. Louis, Mo.). Fluorescence was measured at an excitation of 435 nm and an emission of 485 nm in a Perkin-Elmer LS-50B fluorescence spectrophotometer (Perkin Elmer Instruments, Shelton, Conn.). A time scan of fluorescence was performed and three values after the decay reached a plateau (280, 290, 300 seconds) were averaged. The background fluorescence of 40 μL of Tris buffer added to 2 μM/L of Thioflavin-T solution was subtracted. Samples were run in duplicate. Differences in amount of fibrils formed in the presence of investigational compounds were evaluated by means of one-way ANOVA followed by a Dunnet post-hoc test using Statistica (version 6.1, StatSoft Inc., OK).
# (§1) […] monomerized synthetic Aβ40 was incubated in 0.1M Tris pH 7.0, T=37° C. for 8 days in the presence of 0-100 μM concentration of compounds. […] An arrow indicates Aβ monomers clustered in ill developed protofibril. (C) Oligomerization assay. ARN4261 and ARN4224 reduced the amount of Aβ oligomers by 78% and 74%, respectively p<0.001. A compound 69b (GKLVFNmgA) was used as a positive control. 69b is homologous to Aβ sequence 17-21 and contains N-methyl glycine (Nmg), which renders it capable of anti-fibrillization and anti-oligomerization effect. (D) Principle of oligomerization assay. 100 μM Aβ40 was aggregated alone or with the addition of 10 μM of tested compounds [1:10 compound: Ab ratio] for 24 h in conditions promoting oligomers assembly, i.e., DMEM/F-12 medium+0.2% SDS, T=4° C. Prior to SDS-PAGE in non-reducing conditions samples were treated with glutaraldehyde. A strong smear of Aβ oligomers is seen between 37 and 70 KDa markers (arrows) in lane 2, and a dense band below the 25 KDa marker reflects Aβ monomers non-dissociated by 10% polyacrylamide gel. No oligomers above 37 KDa marker are seen in lane 1 containing only Aβ monomers run as a control. […] (E) TEM of Aβ oligomers. […] Yellow arrowhead indicates smaller oligomers.
# Aβ40 [2] = target: T1, Aβ40; experiment: Oligomerization assay; assay type: biochemical; settings: 100 μM Aβ40, 10 μM compound, 24 h; for amount of oligomers on SDS-PAGE: lanes 3-5
# Protocol: as §1
# [3] = system: SK-N-SH human neuroblastoma cells; experiment: Toxicity by MTT cell viability and LDH release assays; assay type: cell-based; settings: 100 μM
# Protocol: The effect of 0.01-100 μmol/L concentrations of investigational compounds was tested on the viability of the N2a murine neuroblastoma cell line (American Type Culture Collection, Manassas, Va.). N2a cells were grown in Eagle's minimal essential medium with the addition of 10% fetal bovine serum, streptomycin and gentomycin (Sigma, St. Louis, Mo.), harvested with 2% trypsin and plated at 10,000 cells/100 μL per well in flatbottom, 96-well microtiter plates. The cells were allowed to attach to the plate overnight in an incubator (37° C., 5% CO2) and in the following morning stocks of investigational compounds (50 mmol/L stock diluted in DMSO) were added to cells to achieve the final concentration 0.01-100 μmol/L. Adequate amounts of DMSO (Dimethyl sulfoxide, Sigma, St. Louis, Mo.) were added to control cells. Cells were grown in the presence of investigational compounds for 48 h and then their viability was assessed using a metabolic assay, which is based on cleavage of the yellow tetrazolium salt (MTT) to purple formazan crystals by viable cells. The MTT assay (Roche Molecular Biochemicals, Indianapolis, Ind.) was performed according to the manufacturer's instructions. The results from cell culture neurotoxicity studies were evaluated by one-way analysis of variance, followed by a Dunnett's test as a post hoc analysis.
# As shown in FIG. 2 (MTT assay), the compounds were tested for toxicity in SK-N-SH human neuroblastoma cells using MTT cell viability and LDH release (membrane integrity) assays.
# APP [4] = experiment: APP, C99, C83 and sAPP levels in 751APPSW CHO cells (immunoblot, immunostaining); assay type: cell-based, human; settings: 751APPSW CHO clone
# APP [5] = experiment: Acute treatment experiment: brain soluble Aβ40, APP, C99 and C83; assay type: in vivo, mice; settings: five days ip, ARN2966 50 mg/kg/day, Compound E 3 mg/kg/day
# Protocol: Furthermore, we conducted an acute treatment experiment where six months old female APPSW/PS1dE9 mice (n=3/group) were treated for five days with ARN2966 (50 mg/kg/day), Compound E (3 mg/kg/day) or Vehicle injected intraperitoneally. Mice were killed three hours after the last injections. The level of soluble Aβ40 was measured in the brain aliquots following diethylamine (DEA) extraction. It was lower in ARN2966 and Compound E treated groups by 39% (p<0.05) and 60% (p<0.05) comparing to vehicle treated mice, respectively (p<0.05; FIG. 6E).
# FIGS. 6.(A, B) ARN2966 treatment reduces load of Aβ plaques (n=10 ARN2966, n=15 Vehicle). (B) Representative photomicrograph of Th-S stained brain sections from vehicle and ARN2966 treated 10 month old, female APPSW/PS1dE9reveal a difference in the load of Aβ plaques. […] (D) Reduced Aβ40 and Aβ42 levels in FA extracted brain homogenate, which represent the total brain content of Aβ peptides in ARN2966 treated animals (ELISA). (E) Reduced soluble Aβ40 level in DEA extracted brain homogenate, of ARN2966 and Compound E treated mice (ELISA). […] Aβ concentrations in (C) (D) and (E) are given per gram of wet brain. All values are given as mean±SEM. Statistical analysis was done using two-tailed unpaired t-test, following confirmation of normal distribution of data using Shapiro-Wilk test.
# T1 sequence (P05067 672-711): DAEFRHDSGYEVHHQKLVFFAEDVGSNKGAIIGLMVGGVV
molecule,measurement,setting,value
COc1ccc(/C=N/Nc2nc3ccccc3n2C)cc1O [ARN4224],EC50,"Aβ40 [1]; 100 μM HFIP monomerized synthetic Aβ40, 0.1M Tris pH 7.0, 37° C., 8 days, 0-100 μM compound, read-out: EC50 of fibril reduction",44 µM
same,Emax,"Aβ40 [1]; pH 7, read-out: EMAX (% of maximal fibril reduction)",55%
same,reduction of the amount of Aβ oligomers,"Aβ40 [2]; DMEM/F-12 + 0.2% SDS, 4° C.",74%
same,amount of oligomers on SDS-PAGE,Aβ40 [2],reduced amount of oligomers
same,toxicity in both MTT and LDH release assays,[3],showed toxicity
"C[C@H](NC(=O)Cc1cc(F)cc(F)c1)C(=O)N[C@H](C(=O)OC(C)(C)C)c1ccccc1 [Compound D, N-[N-(3,5-difluorophenacetyl)-L-alanyl]-S-phenylglycine t-butyl ester, reference compound]","level of APP FL, C99 and C83 in cell lysates",APP [4],"some accumulation of APP FL, and substantial accumulation of C99 and C83; also recorded: modestly increased the APP FL level and substantially increased levels of C83 and C99"
"GKLVFNmgA [69b, reference compound]",amount of oligomers on SDS-PAGE,Aβ40 [2],reduced amount of oligomers
"C[C@H](NC(=O)Cc1cc(F)cc(F)c1)C(=O)N[C@H]1N=C(c2ccccc2)c2ccccc2N(C)C1=O [Compound E, (S,S)-2-[2-(3,5-difluorophenyl)-acetylamino]-N-(1-methyl-2-oxo-5-phenyl-2,3-dihydro-1H-benzo[e][1,4]diazepin-3-yl)-propionamide, reference compound]","APP, C99 and C83 signal in brain homogenate (western immunoblotting)",APP [5],modest increase in C99 and C83 signal
same,lowering of soluble Aβ40 (DEA extraction) in brain vs vehicle,APP [5]; killed three hours after last injection,60%
same,"level of APP FL, C99 and C83 in cell lysates",APP [4],"some accumulation of APP FL, and substantial accumulation of C99 and C83; also recorded: modestly increased the APP FL level and substantially increased levels of C83 and C99"
same,sAPP (sAPPα and total sAPP stub) in conditioned media,APP [4],increased level of sAPP stubs
